The subject of data set [1] is mouse teratogenesis models. As to conditions: mouse teratogenesis models (Arnhold et al., 2002); cited from earlier work.
The next data set addresses T1, PPARα (Homo sapiens, UniProt Q07869).
T1 sequence (Q07869 1-468): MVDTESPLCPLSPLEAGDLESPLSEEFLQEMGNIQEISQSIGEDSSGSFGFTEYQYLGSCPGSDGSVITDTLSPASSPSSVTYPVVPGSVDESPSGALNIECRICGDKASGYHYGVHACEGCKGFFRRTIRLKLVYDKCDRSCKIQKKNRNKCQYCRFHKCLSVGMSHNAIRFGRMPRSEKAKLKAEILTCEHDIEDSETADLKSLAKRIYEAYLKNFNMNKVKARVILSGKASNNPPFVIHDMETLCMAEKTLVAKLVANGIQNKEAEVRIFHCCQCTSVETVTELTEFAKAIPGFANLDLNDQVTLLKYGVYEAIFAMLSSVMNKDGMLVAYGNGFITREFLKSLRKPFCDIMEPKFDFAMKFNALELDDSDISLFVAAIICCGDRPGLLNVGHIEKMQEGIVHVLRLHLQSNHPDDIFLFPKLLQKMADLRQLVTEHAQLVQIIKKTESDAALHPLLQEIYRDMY
Conditions: cited from earlier work.

A further data set deals with 3T3-L1 cells. As to conditions: 3T3-L1 cells (Schluter et al., 2002); cited from earlier work.
In another data set the test system is hepatocytes. As to conditions: EP 1177789; cited from earlier work.
Data set [2] deals with RXR (retinoid X receptor). As to conditions: cited from earlier work.
A further data set has as its system healthy mice. Briefly: Phytol treatment healthy mice, serum cholesterol and LDL-cholesterol (Example 6). Type of data set: in vivo, mouse. Conditions: 1 weight percentage phytol in the food, after thirty days, vs untreated mice. As to the method: FIG. 6 is a graph comparing the cholesterol and LDL-Cholesterol lowering effect of phytol in mice. The mice were treated with oral administration of phytol at 1% weight evenly distributed in powdered chow.
Cholesterol and LDL-Cholesterol lowering effect after oral administration of phytol was validated in serum from healthy mice treated with phytol. Phytol (FIG. 6; black bars) was administrated to mice at 1 weight percentage phytol mixed in the food for thirty days. Analysis was made in comparison with control (FIG. 6; white bars) untreated mice.

Data set [3] relates to rats. Conditions: cited from earlier work.
For data set [4], the system named is healthy pigs. Briefly: Phytol treatment healthy pigs, serum triglycerides and cholesterol (Example 2). Conditions: 10 g phytol daily mixed in the food, after 1 wk, vs untreated pigs. Type of data set: in vivo, pig. Here is the method:
FIG. 2 is a graph comparing the triglyceride and cholesterol lowering effect of phytol in pigs. The pigs were treated with oral administration of phytol at 10 g daily.
Triglyceride and cholesterol lowering effect after oral administration of phytol was validated in serum from healthy pigs treated with phytol. Phytol (FIG. 2.; black bars) was administrated to pigs at 10 g phytol daily mixed in the food. Analysis was made in comparison with control (FIG. 2.; white bars) untreated pigs.

In data set [5] the test system is healthy pigs. The data set is described as follows: Phytol treatment healthy pigs, increasing dose, serum triglycerides (Example 3). As to conditions: vs corn oil control. In kind it is in vivo, pig. As to the method:
FIG. 3 is a graph showing the effect of increased dose of phytol in pigs. The pigs were treated with oral administration of 1.25; 2.5; 5 and 10 g phytol daily for two weeks, respectively.
Triglyceride lowering effect after oral administration of phytol was validated in serum from healthy pigs treated with phytol. Phytol (FIG. 3.; black circles) was administrated to pigs at 1.25, 2.5, 5 and 10 g phytol daily. Analysis was made in comparison with control (FIG. 3.; open circles) pigs given corn oil as control.

Data set [6] concerns healthy rats. Briefly: Phytol treatment healthy rats, serum cholesterol and LDL-cholesterol, thirty days (Example 5). Type of data set: in vivo, rat. As to conditions: 1 weight percentage phytol in the food. As to the method:
FIG. 5 is a graph comparing the cholesterol and LDL-Cholesterol lowering effect of phytol in rats. The rats were treated with oral administration of phytol at 1% weight evenly distributed in powdered chow.
Cholesterol and LDL-Cholesterol lowering effect after oral administration of phytol was validated in serum from healthy rats treated with phytol. Phytol (FIG. 5; black bars) was administrated to rats at 1 weight percentage phytol mixed in the food for thirty days. Analysis was made in comparison with control (FIG. 5; white bars) untreated rats.

For data set [7] the following is noted: cited from earlier work.
In data set [8] the test system is rats. Conditions: rats fed 0.5% phytol in the diet for 15 months (Steinberg et al., 1966); cited from earlier work.
For data set [9] the following is noted: one Refsum's disease patient, 72 mg tritium labelled phytol orally after overnight fasting (Kahlke & Wagener, 1966); cited from earlier work.
The next data set relates to obese (ob/ob) mice. The data set is described as follows: Phytol treatment obese (ob/ob) mice, serum cholesterol (Example 4). In kind it is in vivo, mouse. Conditions: 0.75 weight percentage phytol mixed in the food, during 5 weeks, vs untreated mice, p<0.001. As to the method:
FIG. 4 is a graph comparing the cholesterol lowering effect of phytol in obese ob/ob mice. The mice were treated with oral administration of phytol 0.75% weight evenly distributed in powdered chow.
Cholesterol lowering effect after oral administration of phytol was validated in serum from obese (ob/ob) mice treated with phytol. Phytol (FIG. 4; black circles) was administrated to the mice at 0.75 weight percentage phytol mixed in the food. Analysis was made in comparison with control (FIG. 4; open circles) untreated mice.

A further data set concerns rabbits. As to conditions: cited from earlier work.
The subject of a further data set is adult mice. Conditions: cited from earlier work.
For another data set, the system named is humans. Conditions: 10% concentration (Kligman, 1966; Kligman & Epstein, 1975); cited from earlier work.
The conditions of data set [10]: cited from earlier work. The source holds these as a separate data set.
The subject of data set [11] is healthy rats. The data set is described as follows: Phytol treatment healthy rats, serum triglycerides and cholesterol (Example 1). In kind it is in vivo, rat. Conditions: 1 weight percentage phytol mixed in the food, after 4 days, vs untreated rats. As to the method: FIG. 1 is a graph comparing the triglyceride and cholesterol lowering effect of phytol in rats. The rats were treated with oral administration of phytol at 125 mg daily.
Triglyceride and cholesterol lowering effect after oral administration of phytol was validated in serum from healthy rats treated with phytol. Phytol (FIG. 1; black bars) was administrated to rats at 1 weight percentage phytol mixed in the food. Analysis was made in comparison with control (FIG. 1; white bars) untreated rats.

The test system of data set [12] is healthy rats. The data set is described as follows: Phytol treatment healthy rats, 400 mg every second day, serum cholesterol and LDL-cholesterol (Example 7). In kind it is in vivo, rat. As to conditions: 400 mg phytol every second day, after three weeks, vs untreated rats. Here is the method:
FIG. 7 is a graph comparing the cholesterol and LDL-Cholesterol lowering effect of Phytol in rats. The rats were treated with oral administration of phytol at 400 mg every second day for three weeks.
Cholesterol and LDL-Cholesterol lowering effect after oral administration of phytol was validated in serum from healthy rats treated with phytol. Phytol (FIG. 7; black bars) was administrated to rats at 400 mg phytol administered every second day for three weeks. Analysis was made in comparison with control (FIG. 7; white bars) untreated rats.

The conditions of data set [13]: phytol given as chlorophyll; cited from earlier work.
[14] abbreviates: after ten days, vs untreated rats, p<0.0001.
[15] abbreviates: after three weeks of phytol feeding.

`CC(C)CCCC(C)CCCC(C)CCCC(C)CC(=O)O` (stereo not drawn) [phytanic acid]: the “vitamin A (retinol) induced teratogenic effects” value in [1] was “able to prevent”. Besides, the “activation of PPARα in vitro (postulated)” value on PPARα is “activate”. Also, the “AP2 mRNA” value with 3T3-L1 cells is recorded as “activates AP2 mRNA”. Moreover, in the data set with hepatocytes, the “transcription of the genes for glucose transporters and glucokinase” value is “increase and stimulate the transcription”; the “uptake of glucose in hepatocytes” value was “increased uptake of glucose”. For the same compound, the “RXR (retinoid X receptor) activator” value in [2] (Kitareewan et al., 1996) is “activator”. For the same compound, in data set [2] (in vitro), the “activation of RXR in vitro (postulated)” value is “activate”.
As to `C/C(=C\CO)CCCC(C)CCCC(C)CCCC(C)C` (stereo not drawn) [phytol, 3,7,11,15-Tetramethyl-hexadec-2-en-1-ol], the “serum LDL-cholesterol” value with healthy mice (p<0.01) was “significantly reduced”; in the data set on healthy rats [6] (setting [14]), “significantly reduced”; in the data set on healthy rats [6] (after thirty days), “even more reduced”; with healthy rats [12] (p<0.001) it was “significantly reduced”. Further, the serum cholesterol entry in the data set with healthy mice (p=0.05), with healthy rats [6] (setting [14]) and with healthy rats [12] (p<0.05) was “significantly reduced” in each case. In addition, in the data set with rats [3], the “acute oral LD50” value is listed as “exceed 5 g/kg”. The “serum levels of triglycerides” value is listed as “significantly reduced” with healthy pigs [4] (p<0.01); “significantly reduced” with healthy pigs [5] (2.5 g phytol per day oral, p<0.05); “significantly reduced” in the data set with healthy pigs [5] (5 g phytol per day oral, p<0.01); “significantly reduced” with healthy pigs [5] (10 g phytol per day oral, p<0.001); “significantly reduced” in the data set with healthy rats [11] (p<0.05). Also, the “serum levels of cholesterol” value in the data set on healthy pigs [4] (p<0.05), in the data set with obese (ob/ob) mice and in the data set on healthy rats [11] (p<0.001) was “significantly reduced” in each case. In [1], the “vitamin A (retinol) induced teratogenic effects” value is recorded as “able to prevent”. In addition, the “capacity to absorb into the intestinal lymphatic” value in data set [7] (rat, oral administration (Baxter & Steinberg, 1967)) is no more than 0.2 g phytol/kg bodyweight. The “time of transportation into the intestinal lymphatic after administration” value in data set [7] (rat, oral administration) was no more than 20 h. Further, the “absorption when mixed with bile salts prior to administration” value in [7] (rat, oral, phytol mixed with bile salts) was “absorption increases”. In addition, the “orally administered phytol absorbed” value in [7] (rat, oral) is “More than 50%”. Further, in [7] (rat, oral), the “share of absorbed phytol absorbed via the intestinal lymphatics” value is recorded as “more than 70%”. For the same compound, in data set [7] (rats fed 5% phytol (Mize et al., 1966)), the absorption and degradation result was “capacity to rapidly absorb and degrade phytol”. In addition, the “absorbed, of administered dose” value in data set [7] (rats, oral) was 30-66 % of administered dose. In the data set on rats [8], the “growth inhibition or toxicity” value is given as “No evidence of growth inhibition or toxicity”. Also, the “principal carriers of phytol in plasma” value in [9] was “Plasma cholesterol esters and triglycerides”. Also, in the data set with rabbits, the “acute dermal LD50” value is on record as “exceed 5 g/kg”. The serum cholesterol levels result in the data set on adult mice (setting [15]) was “remained unaffected”. In addition, the serum triglyceride levels result in the data set with adult mice (setting [15]) is reported as “decreased”. Moreover, the hepatic peroxisomes entry with adult mice (enhanced supply of phytol in the diet (Van den Branden et al., 1986)) is recorded as “proliferation of hepatic peroxisomes”. In addition, in the data set with humans, the irritation entry was “no irritation”. For the same compound, the “serum and liver values of accumulated phytol after phytol is subtracted from the food” value in data set [10] (after withdrawal of dietary phytol) is “drops rapidly”. In data set [10] (at the 1% level in the food), the “distribution to the livers” value is “no phytol was distributed to the livers”. Besides, the accumulation in tissues result in [10] (dietary phytol at doses 1-5% in the food, rat, mouse, rabbit and chinchillas (Steinberg et al., 1966)) is “accumulation in both liver and serum”.
On to chlorophyll, for which the “absorption of phytol compared to when given as pure phytol” value in data set [13] was “much lower”.

(Values after US20110015278A1, “PHYTOL AS A CHOLESTEROL LOWERING AGENT” (priority 2008, published 2011).)
